# According to ChEMBL document CHEMBL5291721, “A preclinical secondary pharmacology resource illuminates target-adverse drug reaction associations of marketed drugs” (Nat Commun, 2023):
# Experiments:
# [1] = target: T1, Oxysterols receptor LXR-beta (Homo sapiens, UniProt P55055); assay type: functional
# T1 sequence (P55055 whole entry): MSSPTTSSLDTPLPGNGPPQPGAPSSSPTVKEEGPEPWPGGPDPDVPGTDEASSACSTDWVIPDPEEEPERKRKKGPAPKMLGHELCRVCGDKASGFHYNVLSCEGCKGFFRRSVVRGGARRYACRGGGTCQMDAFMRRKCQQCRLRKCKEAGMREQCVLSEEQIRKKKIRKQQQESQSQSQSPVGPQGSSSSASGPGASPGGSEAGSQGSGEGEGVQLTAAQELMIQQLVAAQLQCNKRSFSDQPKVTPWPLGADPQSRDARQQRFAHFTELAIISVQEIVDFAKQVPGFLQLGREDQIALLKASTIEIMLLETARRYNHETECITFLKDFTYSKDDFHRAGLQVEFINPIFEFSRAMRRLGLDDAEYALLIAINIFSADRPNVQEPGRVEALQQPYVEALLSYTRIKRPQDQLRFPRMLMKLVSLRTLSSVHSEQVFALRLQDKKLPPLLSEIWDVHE
# [2] = target: T1, Oxysterols receptor LXR-beta; assay type: functional; remark: listed apart in the source
# [3] = target: T2, Nuclear receptor subfamily 1 group I member 3 (Homo sapiens, UniProt Q14994); assay type: functional
# T2 sequence (Q14994 whole entry): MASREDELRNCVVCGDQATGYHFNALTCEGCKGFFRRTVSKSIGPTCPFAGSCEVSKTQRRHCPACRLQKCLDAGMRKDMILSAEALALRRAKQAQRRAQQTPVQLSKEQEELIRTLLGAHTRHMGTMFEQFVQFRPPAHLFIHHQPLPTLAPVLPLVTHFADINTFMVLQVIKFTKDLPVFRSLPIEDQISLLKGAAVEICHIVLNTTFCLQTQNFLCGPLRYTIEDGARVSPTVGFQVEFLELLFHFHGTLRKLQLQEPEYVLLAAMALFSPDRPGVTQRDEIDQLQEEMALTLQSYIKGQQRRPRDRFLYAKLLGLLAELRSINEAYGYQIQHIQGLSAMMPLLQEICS
# [4] = target: T3, Retinoic acid receptor beta (Homo sapiens, UniProt P10826); assay type: functional, cell-based
# T3 sequence (P10826 whole entry): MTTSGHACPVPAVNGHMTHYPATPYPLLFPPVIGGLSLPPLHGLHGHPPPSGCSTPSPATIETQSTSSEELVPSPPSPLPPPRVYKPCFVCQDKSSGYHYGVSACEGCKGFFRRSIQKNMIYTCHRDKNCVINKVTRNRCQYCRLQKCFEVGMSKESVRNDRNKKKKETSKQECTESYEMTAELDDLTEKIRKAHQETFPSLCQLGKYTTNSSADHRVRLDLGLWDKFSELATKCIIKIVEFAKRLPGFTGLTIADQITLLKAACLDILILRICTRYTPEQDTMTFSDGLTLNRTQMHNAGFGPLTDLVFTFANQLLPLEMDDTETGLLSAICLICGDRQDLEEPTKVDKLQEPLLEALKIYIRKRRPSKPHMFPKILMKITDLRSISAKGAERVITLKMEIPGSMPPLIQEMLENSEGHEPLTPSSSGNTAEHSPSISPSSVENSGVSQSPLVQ
# [5] = target: T4, Retinoic acid receptor gamma (Homo sapiens, UniProt P13631); assay type: functional, cell-based
# T4 sequence (P13631 whole entry): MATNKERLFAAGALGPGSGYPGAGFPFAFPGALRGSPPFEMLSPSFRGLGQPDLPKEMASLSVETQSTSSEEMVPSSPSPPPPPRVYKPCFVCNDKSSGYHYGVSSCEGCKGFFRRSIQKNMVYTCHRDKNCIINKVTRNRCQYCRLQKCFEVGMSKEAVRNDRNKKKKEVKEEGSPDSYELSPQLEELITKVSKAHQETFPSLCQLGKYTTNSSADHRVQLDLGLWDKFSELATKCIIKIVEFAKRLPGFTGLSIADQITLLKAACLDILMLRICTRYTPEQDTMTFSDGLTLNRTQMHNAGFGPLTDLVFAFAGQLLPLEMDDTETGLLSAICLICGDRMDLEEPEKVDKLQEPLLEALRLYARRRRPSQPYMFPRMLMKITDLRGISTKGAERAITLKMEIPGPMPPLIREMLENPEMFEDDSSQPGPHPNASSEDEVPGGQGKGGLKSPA
# [6] = target: Synaptic vesicular amine transporter (Rattus norvegicus, UniProt Q01827); assay type: functional
# [7] = target: T5, Alpha-1A adrenergic receptor (Homo sapiens, UniProt P35348); assay type: functional, cell-based
# T5 sequence (P35348 whole entry): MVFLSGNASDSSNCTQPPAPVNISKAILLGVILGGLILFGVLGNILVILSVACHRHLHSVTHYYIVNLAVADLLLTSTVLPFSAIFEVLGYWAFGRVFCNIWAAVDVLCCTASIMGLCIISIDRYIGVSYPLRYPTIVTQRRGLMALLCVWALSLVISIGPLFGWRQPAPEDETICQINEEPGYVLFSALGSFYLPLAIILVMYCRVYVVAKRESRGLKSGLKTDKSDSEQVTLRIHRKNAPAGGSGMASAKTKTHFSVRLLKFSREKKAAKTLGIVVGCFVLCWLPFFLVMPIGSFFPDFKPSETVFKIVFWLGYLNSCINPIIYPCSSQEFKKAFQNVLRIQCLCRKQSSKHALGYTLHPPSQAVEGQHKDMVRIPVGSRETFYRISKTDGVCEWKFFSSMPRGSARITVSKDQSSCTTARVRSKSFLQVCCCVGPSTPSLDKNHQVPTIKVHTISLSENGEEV
# [8] = target: Sodium-dependent serotonin transporter (Homo sapiens, UniProt P31645)
# Also: assay procedure not described here.
# Chain of Synaptic vesicular amine transporter (Q01827 whole entry): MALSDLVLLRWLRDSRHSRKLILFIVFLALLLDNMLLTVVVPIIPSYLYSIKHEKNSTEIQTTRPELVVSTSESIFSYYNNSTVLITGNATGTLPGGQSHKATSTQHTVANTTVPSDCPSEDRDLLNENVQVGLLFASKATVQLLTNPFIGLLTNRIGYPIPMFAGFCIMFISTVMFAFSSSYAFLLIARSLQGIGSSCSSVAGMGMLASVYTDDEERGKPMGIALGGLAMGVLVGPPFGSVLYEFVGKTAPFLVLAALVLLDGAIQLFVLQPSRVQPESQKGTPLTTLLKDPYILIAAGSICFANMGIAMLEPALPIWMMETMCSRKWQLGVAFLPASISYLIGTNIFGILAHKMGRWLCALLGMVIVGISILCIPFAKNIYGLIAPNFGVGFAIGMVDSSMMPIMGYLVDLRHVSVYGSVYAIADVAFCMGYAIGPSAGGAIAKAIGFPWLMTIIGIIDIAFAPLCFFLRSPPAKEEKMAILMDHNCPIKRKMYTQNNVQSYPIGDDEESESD
# Chain of Sodium-dependent serotonin transporter (P31645 whole entry): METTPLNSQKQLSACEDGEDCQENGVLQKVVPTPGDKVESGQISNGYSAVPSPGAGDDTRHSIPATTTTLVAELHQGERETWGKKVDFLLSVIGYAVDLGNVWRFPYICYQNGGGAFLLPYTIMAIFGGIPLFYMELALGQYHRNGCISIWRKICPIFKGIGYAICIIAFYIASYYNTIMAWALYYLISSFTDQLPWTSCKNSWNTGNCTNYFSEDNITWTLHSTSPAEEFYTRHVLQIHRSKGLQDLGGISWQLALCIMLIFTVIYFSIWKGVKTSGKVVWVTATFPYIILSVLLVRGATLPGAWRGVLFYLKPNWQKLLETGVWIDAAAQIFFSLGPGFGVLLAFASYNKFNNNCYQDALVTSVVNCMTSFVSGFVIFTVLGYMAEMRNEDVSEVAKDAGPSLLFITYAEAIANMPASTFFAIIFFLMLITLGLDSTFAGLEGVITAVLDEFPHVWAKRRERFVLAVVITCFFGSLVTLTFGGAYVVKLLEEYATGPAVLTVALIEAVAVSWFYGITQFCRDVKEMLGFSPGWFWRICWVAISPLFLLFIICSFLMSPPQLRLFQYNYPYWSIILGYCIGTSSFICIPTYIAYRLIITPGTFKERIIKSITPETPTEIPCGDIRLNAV
molecule,measurement,setting,value
CC(C)c1c(C(=O)Nc2ccccc2)c(-c2ccccc2)c(-c2ccc(F)cc2)n1CC[C@@H](O)C[C@@H](O)CC(=O)O [ATORVASTATIN],AC50,[1],> 30 µM
same,AC50,[2],> 30 µM
same,AC50,[3],> 10 µM
same,AC50,[4],> 30 µM
same,AC50,[5],> 30 µM
CCNC(C)Cc1cccc(C(F)(F)F)c1 (stereo not drawn) [FENFLURAMINE],AC50,[6],3.71 µM
Nc1nc2ccc(OC(F)(F)F)cc2s1 [RILUZOLE],AC50,[7],> 30 µM
BIVALIRUDIN,AC50,[8],> 30 µM
